Legend:
[1] = tested on: CYP3A/Cyp3a; experiment: Midazolam metabolites in mouse liver microsomes by LC-MS/MS; settings: 10 μM midazolam
Description: (§1) In order to investigate whether or not a human-specific metabolite of midazolam, which is known to be metabolized by CYP3A/Cyp3a, is observed in the TC (CYP3A-HACΔ)/Δcyp mouse as in the case of a human, microsomes derived from the liver of the TC(CYP3A-HACΔ)/Δcyp mouse, the Δcyp mouse, the B6 normal mouse, and the human were allowed to react with midazolam, and mass analysis was carried out via LC-MS/MS in the following manner. […] The reaction was terminated with the addition of acetonitrile, the mixture was centrifuged at 3,000 rpm for 5 minutes, and the supernatant was separated. The solvent was removed therefrom by distillation under a nitrogen stream at 40° C., the dried extract was redissolved in acetonitrile, and mass analysis was carried out by LC-MS/MS

[2] = tested on: CYP3A/Cyp3a; experiment: Midazolam metabolites in human liver microsomes by LC-MS/MS; settings: 10 μM midazolam, 37° C. 30 minutes
Description: as §1

[3] = tested on: CYP3A/Cyp3a expression; experiment: Induction of CYP3A/Cyp3a expression by PCN, Western blot of liver microsome fractions
Description: In order to investigate the influence of pregnenolone 16α-carbonitrile (PCN) (Sigma), which is known as a substance inducing CYP3A/Cyp3a expression, on CYP3A/Cyp3a gene expression in TC(CYP3A-HACΔ)/Δcyp, Δcyp, and B6 normal mice, PCN was administered intraperitoneally for 4 days in amounts of 100 mg/kg per dose. A suspension of PCN in corn oil (Sigma) was prepared for administration.

[4] = tested on: CYP3A4

| SMILES | human-specific metabolite (10.22) ([1]; TC(CYP3A-HACΔ)/Δcyp mouse liver microsomes, 37° C. 30 minutes) | main metabolite (10.62) ([1]; all microsomes (TC(CYP3A-HACΔ)/Δcyp, Δcyp, B6 normal mouse, human)) | human-specific metabolite (10.22) [2] | CYP3A expression level compared with corn oil mice of the same strain ([3]; B6 normal mice, 100 mg/kg intraperitoneally for 4 days, liver on day 5) | CYP3A expression ([3]; mouse, in vivo, ip, 100 mg/kg) | CYP3A expression level compared with corn oil mice of the same strain ([3]; mouse, in vivo, ip, 100 mg/kg) | metabolic activity (triazolam hydroxylation) of liver microsomes, PCN-administered versus corn oil-administered mice [4] [times] |
| --- | --- | --- | --- | --- | --- | --- | --- |
| Cc1ncc2n1-c1ccc(Cl)cc1C(c1ccccc1F)=NC2 [midazolam] | detected | detected in all microsomes | detected |  |  |  |  |
| CC(=O)[C@H]1[C@H](C#N)C[C@H]2[C@@H]3CC=C4C[C@@H](O)CC[C@]4(C)[C@H]3CC[C@@]21C [PCN, pregnenolone 16α-carbonitrile] |  |  |  | elevated | not observed | elevated | 10 |

From US8951789B2, “Mammalian artificial chromosome vector comprising human cytochrome P450 gene (cluster) and non-human mammalian animal retaining the same” (National University Corporation Tottori University, priority 2007, dated 2015)
